Assay type in all cases: in vivo
Assay [1] deals with Seeds of Lettuce R. (Super-Jericho). Put plainly: Filter paper bioassay with lettuce seeds: germination, Fully Effective Concentration (FEC). The note with it: lowest concentration mostly preventing lettuce seed germination, assessed after 6 days. The source says:
Materials: Seeds of Lettuce R. (Super-Jericho, non-sterilized) were obtained from Ben Shahar Moshe Ltd., 99% purity. The test compounds listed in the Table 2 below were synthetized de novo or purchased from different vendors.
Filter Paper Bioassays with Lettuce seeds: The protocol is following Bertin et al. 2009 and Movellan et al. 2014 with specified modifications as described below.
Seeds were placed on Whatman no. 1 filter paper (Whatman, Middlesex, U.K.) in Petri dishes (10 seeds per plate) with 2.0 ml of aqueous solution of a test material in concentration ranged from 0 (control) to 1 mmol/l were placed in a tray tilted at 45°. The trays were kept in dark for 48 hours and then transferred to the growth chamber with 6/18 dark/light cycle for 4 days. Each experiment was performed at least with two repeats.
The development of plants' radicle and shoots were visually assessed 6 days after the beginning of the test to determine Fully Effective Concentration (FEC) of a test material. In the context of the invention, FED is defined as the lowest concentration level of a test material that mostly preventing seeds germination.

For assay [2] the test system is unchanged. As to the kind of experiment: Filter paper bioassay with lettuce seeds: germination and early plant development, Minimal Effective Concentration (MEC). The note with it: lettuce seeds on filter paper, 0 to 1 mmol/l, visually assessed after 6 days. The essentials:
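Non-sterilized Super-Jericho lettuce seeds, 10 per dish, on filter paper wetted with aqueous test solution at 0–1 mmol/l. Kept 48 h dark, then 4 days at 6/18 dark/light. MEC is the lowest concentration causing no germination or radicle/shoot malformation by visual scoring at day 6; at least two repeats.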

For a further assay, the system named is Amaranth. Put plainly: Herbicidal effect on potted weeds, plant development score. Conditions: soil application 1 mg/pot, scale 0 (dead plants) to 5 (healthy, as Control). The method, then:
(§1) Weed seeds were sawn in 0.3-liter pots, containing medium-heavy clay-loam soil from organic fields (55% clay, 23% silt, 20% sand, 2% organic matter, pH 7.1). The experiment was conducted in a completely randomized design. Each treatment was replicated 3 times (3 pots). Each compound was typically tested on crops (Corn, Wheat, Soy, Cotton, Oat, Chickpea) and weeds (Amaranth, Chenopodium, Lentils, Sinapis, Silybum).
(§2) The herbicides were applied at dose from 0 (control) to 5 mg/pot. The treatment was performed at the day of sawn (pre-emergence treatment). Then the pots were transferred to a mesh house 24 hours after herbicide application and were sprinkler irrigated to field capacity of the soil. Alternatively, the herbicides were applied on grown plants at stage 2-3 true leaves (post-emergence treatment).
(§3) The plants were grown in the mesh house during the entire experiment. Plant development at 6, 12, 19, 26 and 32 days after application (DAA) were evaluated on a scale of 0 to 5, in which 0 represents dead plants and 5 represents healthy plants similar or not different from Control. In the context of the invention, the herbicidal effect was expressed as a score calculated as an average of assessments of plants vigor, height, and leaf color.

In a further assay the test system is Chenopodium. The assay is described as above. The note with it: soil application 1 mg/pot, scale 0 (dead plants) to 5 (healthy, as Control). The method, then:
as §1, §2, §3

In a further assay the test system is Lentils. The assay is described as above. Conditions: soil application 1 mg/pot, scale 0 (dead plants) to 5 (healthy, as Control). As for the experimental part:
as §1, §2, §3

The next assay deals with Sinapis. The assay is described as above. Conditions: soil application 1 mg/pot, scale 0 (dead plants) to 5 (healthy, as Control). As for the experimental part: as §1, §2, §3
For a further assay, the system named is Silybum. Described as above. Conditions: soil application 1 mg/pot, scale 0 (dead plants) to 5 (healthy, as Control). The method, then: as §1, §2, §3
The test system of assay [3] is Romaine lettuce (Lactuca sativa L.) plants. As to the kind of experiment: Post-emergence herbicidal activity on potted Romaine lettuce plants (soil or foliar application). The note with it: lettuce at 2 to 3 leaves, two weeks after treatment. The essentials:
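Potted lettuce at the 2-3 leaf stage received compound in 0.1% aqueous Silwet, up to 0.0001%, applied to soil (1 ml/pot) or sprayed on foliage (0.1 ml/pot), 20 plants per concentration. Visual scoring and aboveground wet weight after two weeks; growth inhibition from median weights versus control.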

Consider “2-(2,5-dichloro-1,3-thiazol-4-yl)acetic acid [compound 5637]”, for which the “FEC (Fully Effective Concentration)” value in assay [1] stood at 0.050 mM. In addition, in assay [2], the “Score (activity score of Minimal Effective Concentration, MEC)” value was “Strong (0.01 mM)”. Also, the “Average Herbicidal Effect, Amaranth” value was 3.3 with Amaranth (post-emergence) and 1.5 with Amaranth (pre-emergence). Besides, the “Average Herbicidal Effect, Chenopodium” value is reported as 2.2 with Chenopodium (post-emergence) and 1.5 in the assay on Chenopodium (pre-emergence). In addition, the “Average Herbicidal Effect, Lentils” value came out at 1.7 in the assay on Lentils (post-emergence) and 0.0 with Lentils (pre-emergence). In addition, the “Average Herbicidal Effect, Sinapis” value in the assay with Sinapis (post-emergence) turned out to be 0.0; in the assay on Sinapis (pre-emergence), 3.5. For the same compound, the “Average Herbicidal Effect, Silybum” value amounted to 1.0 in the assay on Silybum (post-emergence) and 0.5 in the assay on Silybum (pre-emergence). In addition, the “Score (test material causing more than 85% of Growth Inhibition or irreversible plant damage)” value in assay [3] (foliar application) is recorded as “moderate (0.5)”; in assay [3] (soil application), “strong (0.01 to 0.05)”.
As to `OCC(F)(F)c1cccc(Br)n1` [compound 6643, 2-(6-bromopyridin-2-yl)-2,2-difluoroethan-1-ol], the “Score (activity score of Minimal Effective Concentration, MEC)” value in assay [2] is “Moderate (0.1 mM)”. The “Average Herbicidal Effect, Amaranth” value in the assay with Amaranth (post-emergence) was 1.0; in the assay with Amaranth (pre-emergence), 0.0. In addition, the “Average Herbicidal Effect, Chenopodium” value in the assay with Chenopodium (post-emergence) worked out at 4.0; in the assay with Chenopodium (pre-emergence) it was 3.0. The “Average Herbicidal Effect, Lentils” value in the assay on Lentils (post-emergence) and in the assay with Lentils (pre-emergence) was 0.0 throughout. In addition, the “Average Herbicidal Effect, Sinapis” value in the assay with Sinapis (post-emergence) and in the assay on Sinapis (pre-emergence) was 4.0 throughout. Also, the “Average Herbicidal Effect, Silybum” value is given as 2.0 in the assay on Silybum (post-emergence) and 2.5 with Silybum (pre-emergence). The “Score (test material causing more than 85% of Growth Inhibition or irreversible plant damage)” value in assay [3] (soil application) was “moderate (0.5)”.
“ethyl 2-(6-bromopyridin-2-yl)-2,2-difluoroacetate [compound 6640]”: the “Score (activity score of Minimal Effective Concentration, MEC)” value in assay [2] was “Strong (0.01 mM)”. Moreover, the “Average Herbicidal Effect, Amaranth” value in the assay with Amaranth (post-emergence) was 4.0. Also, in the assay with Chenopodium (post-emergence), the “Average Herbicidal Effect, Chenopodium” value worked out at 1.0. In addition, the “Average Herbicidal Effect, Lentils” value with Lentils (post-emergence) came to 2.0. Besides, the “Average Herbicidal Effect, Sinapis” value with Sinapis (post-emergence) was 3.0. Moreover, the “Average Herbicidal Effect, Silybum” value with Silybum (post-emergence) worked out at 3.0. Further, in assay [3] (soil application), the “Score (test material causing more than 85% of Growth Inhibition or irreversible plant damage)” value is on record as “moderate (0.5)”.
On to `CCOC(=O)C(F)(F)c1cc(Cl)sc1Cl` [compound 5643, ethyl(2,5-dichlorothiophen-3-yl)(difluoro)acetate], for which the “Score (activity score of Minimal Effective Concentration, MEC)” value in assay [2] is given as “Moderate (0.1 mM)”. In addition, the “Average Herbicidal Effect, Amaranth” value in the assay with Amaranth (post-emergence) is on record as 4.0; in the assay with Amaranth (pre-emergence), 0.5. Besides, the “Average Herbicidal Effect, Chenopodium” value in the assay on Chenopodium (post-emergence) came out at 5.0; in the assay on Chenopodium (pre-emergence), 4.0. Moreover, the “Average Herbicidal Effect, Lentils” value in the assay with Lentils (post-emergence) is 4.0; with Lentils (pre-emergence) it was 5.0. In addition, the “Average Herbicidal Effect, Sinapis” value with Sinapis (post-emergence) and in the assay on Sinapis (pre-emergence) was 5.0 throughout. Further, the “Average Herbicidal Effect, Silybum” value with Silybum (post-emergence) is 3.0; in the assay on Silybum (pre-emergence) it was 0.0.
Regarding `O=C(O)C(F)(F)c1csc(C(F)(F)F)n1` [compound 5679, 2,2-difluoro-2-[2-(trifluoromethyl)-1,3-thiazol-4-yl]acetic acid], the “Score (activity score of Minimal Effective Concentration, MEC)” value in assay [2] is reported as “very strong”. For the same compound, the “Average Herbicidal Effect, Amaranth” value is 1.0 with Amaranth (post-emergence) and 4.5 in the assay on Amaranth (pre-emergence). The “Average Herbicidal Effect, Chenopodium” value in the assay on Chenopodium (post-emergence) is 1.0; in the assay with Chenopodium (pre-emergence) it was 1.5. The “Average Herbicidal Effect, Lentils” value amounted to 0.5 in the assay with Lentils (post-emergence) and 0.0 in the assay with Lentils (pre-emergence). Moreover, the results for the “Average Herbicidal Effect, Sinapis” value in the assay with Sinapis (post-emergence) and in the assay with Sinapis (pre-emergence) were 1.0 and 2.0, respectively. For the same compound, the “Average Herbicidal Effect, Silybum” value in the assay on Silybum (post-emergence) and in the assay on Silybum (pre-emergence) was 2.0 each time. The “Score (test material causing more than 85% of Growth Inhibition or irreversible plant damage)” value in assay [3] (foliar application) and in assay [3] (soil application) was “strong (0.01 to 0.05)” throughout.
As to `O=C(O)Cc1cc(Cl)sc1Cl` [compound 586, 2-(2,5-dichlorothiophen-3-yl) acetic acid], the “FEC (Fully Effective Concentration)” value in assay [1] is listed as 0.050 mM. Further, the “Score (activity score of Minimal Effective Concentration, MEC)” value in assay [2] was “strong”. Moreover, the “Average Herbicidal Effect, Amaranth” value in the assay on Amaranth (post-emergence) is given as 3.3; with Amaranth (pre-emergence), 2.0. The “Average Herbicidal Effect, Chenopodium” value in the assay on Chenopodium (pre-emergence) was found to be 1.5. Also, the figures for the “Average Herbicidal Effect, Lentils” value with Lentils (post-emergence) and with Lentils (pre-emergence) were 3.2 and 0.5, respectively. In addition, the “Average Herbicidal Effect, Sinapis” value with Sinapis (post-emergence) is recorded as 0.0; in the assay with Sinapis (pre-emergence), 5.0. Besides, the “Average Herbicidal Effect, Silybum” value with Silybum (post-emergence) worked out at 3.7; in the assay on Silybum (pre-emergence), 1.0. For the same compound, the “Score (test material causing more than 85% of Growth Inhibition or irreversible plant damage)” value in assay [3] (foliar application) and in assay [3] (soil application) was “moderate (0.5)” in each case.
With “2,2-difluoro-2-[6-(trifluoromethyl)pyridin-2-yl]acetic acid [compound 6651]”, the “Score (activity score of Minimal Effective Concentration, MEC)” value in assay [2] is “Strong (0.01 mM)”. For the same compound, the “Average Herbicidal Effect, Amaranth” value in the assay on Amaranth (post-emergence) is reported as 0.5; in the assay with Amaranth (pre-emergence), 5.0. In addition, the “Average Herbicidal Effect, Chenopodium” value with Chenopodium (post-emergence) came to 0.5; in the assay with Chenopodium (pre-emergence) it was 1.5. Further, the “Average Herbicidal Effect, Lentils” value in the assay on Lentils (pre-emergence) is given as 0.0. Moreover, in the assay on Sinapis (post-emergence), the “Average Herbicidal Effect, Sinapis” value is on record as 2.0. The results for the “Average Herbicidal Effect, Silybum” value in the assay with Silybum (post-emergence) and in the assay on Silybum (pre-emergence) were 2.0 and 4.0, respectively. Also, the “Score (test material causing more than 85% of Growth Inhibition or irreversible plant damage)” value in assay [3] (soil application) was “moderate (0.5)”.
As to `CCOC(=O)Cc1cccc(Br)n1` [compound 6635, ethyl 2-(6-bromopyridin-2-yl)acetate], the “Score (activity score of Minimal Effective Concentration, MEC)” value in assay [2] is recorded as “Moderate (0.1 mM)”. Also, the “Average Herbicidal Effect, Amaranth” value with Amaranth (post-emergence) and in the assay on Amaranth (pre-emergence) was 4.0 throughout. The “Average Herbicidal Effect, Chenopodium” value in the assay with Chenopodium (post-emergence) is given as 3.0; with Chenopodium (pre-emergence), 0.5. Besides, the “Average Herbicidal Effect, Lentils” value with Lentils (post-emergence) and with Lentils (pre-emergence) was 0.0 in each case. Moreover, the “Average Herbicidal Effect, Sinapis” value is on record as 2.0 in the assay on Sinapis (post-emergence) and 3.0 in the assay on Sinapis (pre-emergence). The “Average Herbicidal Effect, Silybum” value in the assay on Silybum (post-emergence) is given as 2.5; with Silybum (pre-emergence), 3.0. In addition, the “Score (test material causing more than 85% of Growth Inhibition or irreversible plant damage)” value in assay [3] (soil application) is reported as “moderate (0.5)”.
On to `CCOC(=O)Cc1cc(Cl)sc1Cl` [compound 5668, ethyl (2,5-dichlorothiophen-3-yl)acetate], for which the “Average Herbicidal Effect, Amaranth” value with Amaranth (pre-emergence) is reported as 3.0. The “Average Herbicidal Effect, Chenopodium” value in the assay on Chenopodium (pre-emergence) came to 2.0. In addition, the “Average Herbicidal Effect, Lentils” value with Lentils (pre-emergence) amounted to 4.0. In addition, the “Average Herbicidal Effect, Sinapis” value with Sinapis (pre-emergence) is on record as 5.0. The “Average Herbicidal Effect, Silybum” value in the assay on Silybum (pre-emergence) is 5.0. For the same compound, in assay [3] (soil application), the “Score (test material causing more than 85% of Growth Inhibition or irreversible plant damage)” value is on record as “strong (0.01 to 0.05)”.

These data come from patent publication US20240284907A1, “NOVEL DERIVATIVES OF NON-CODED AMINO ACIDS AND THEIR USE AS HERBICIDES” (FortePhest LTD., priority 2021, published 2024).
